Assay in all cases: Growth/viability assay, IC50 at 72 h
What all share (type): cell-based

The subject of experiment [1] is 22rv1. To be noted: Homo sapiens. The text has this: (§1) Four commercial (LnCaP, 22rv1, DU145 and PC3) and twelve non-commercial (LAPC-4 [44], CWR22, PCb2 [45], PC3Lymphnode, PC3M, PC3M-pro4 [46] and PC3M-Ln4 [47], LnCaP-104S [47], LnCaP104R1 [47], LnCaP-C81 [47], C4-2B [48], VCAP [49] and DuCaP [[49]) cell lines were selected for the in vitro experimental studies for their biological characteristics: LAPC-4 (Androgen receptor [AR] positive, androgen dependent with low Akt/mTOR activities, p53 wt); LnCaP (AR positive, androgen dependent with high Akt/mTOR activities, p53 wt); LnCaP-C81 and LnCaP-C4-2B (AR positive, androgen independent with high Akt/mTOR activities, p53 wt); 22rv1 (AR positive, androgen independent with low Akt/mTOR activities, p53 wt); PC3 (AR negative, with high Akt/mTOR activities and no p53 function (p53 del) and DU145 (AR negative, with low Akt/mTOR activities and mutant p53). PC3 and DU145 have been also transfected with AR to obtain PC3AR [50] and DU-AR [51]. Benign prostatic hyperplasia line (BPH1), and Prostatic epithelial lines (EPN and RWPE-1) were used as non-neoplastic controls. Cells were routinely cultured in appropriate medium supplemented with 10 % fetal bovine serum (FBS), 1 % pen-strep and 1 % L-glutamine (Invitrogen Corporation, Carlsbad, CA). To minimize the risk to work with misidentified and/or contaminated cell lines, DNA profiling was periodically carried out in-house to authenticate cell cultures. DNA was isolated from cell lines using a standard DNA isolation kit. STR profiling was performed by using GenePrint® 10 System (Promega Corporation, Madison, WI). An eight-capillary 3500 Genetic Analyzer (Applied Biosystems Life Technologies Europe BV, Monza, Italy) was used to separate and identify alleles using standard procedures. GenePrint® 10 System allows co-amplification and detection of […] human loci required by the guidelines ASN-0002. For non-commercial cell lines, the authentication process was carried out by comparing STR-fingerprints with those published by Adri van Bokhoven and co-workers. In addition, cell lines were stocked at very low passages and used at <15-20 subcultures.
(§2) Cells were seeded at a density of 2 x 10^4 cells/mL in 24-well plates. Cells were left to attach and grow in 5 % FCS DMEM for 24 h. After this time, cells were maintained in the appropriate culture conditions. Morphological controls were performed every day with an inverted phase-contrast photomicroscope (Nikon Diaphot, Tokyo, Japan) before cell trypsinization and counting. Cells were trypsinized and resuspended in 1.0 ml of saline, then counted using a NucleoCounter™ NC-100 (automated cell counter systems, Chemotec, Gydevang, Denmark). The effect on cell proliferation was measured by taking the mean cell number with respect to controls over time for the different treatment groups.
(§3) Viable cells were counted by using the NucleoCounter™ NC-100 (automated cell counter systems, Chemotec, Cydevang, DK). Apoptosis was evaluated by using Tali® Apoptosis Kit - Annexin V Alexa Fluor® 488 & Propidium Iodide-based, (Life Technologies Italia, Monza, Italy). Stained cells were then measured on a Tali® Image-Based Cytometer. Apoptosis was further confirmed by FACS analysis following the instructions of the manufacturer.
(§4) Six SINE analogs KPT-127, KPT-185, KPT-205, KPT-227, KPT251 and KPT-330 sharing a trifluoromethyl phenyl triazole scaffold, were investigated for their growth inhibitory and apoptotic potential in our PCa cell panel. Therefore, the effects of these XPO1 inhibitors were evaluated on the growth of PCa cell lines performing dose- and time-dependent studies. To examine the dose-dependent effects of these compounds, we treated cells with varying doses of the compounds (0, 1, 10, 50, 100, 500 and 1000 nM) and assessed viability at 72 hours after treatment. The IC50 for each compound was then calculated. […]

The test system of experiment [2] is BPH-1. The following applies: Homo sapiens.
Text: as §1, §2, §3, §4

In experiment [3] the test system is C4-2B. To be noted: Homo sapiens, Fig. 2g.
Text: as §1, §2, §3, §4

Experiment [4] relates to CWR22. The following applies: Homo sapiens; CWR22, Fig. 2g.
Text: as §1, §2, §3, §4

Experiment [5] concerns DU-AR. The following applies: Homo sapiens, Fig. 2g.
Text: as §1, §2, §3, §4

In experiment [6] the test system is DU145. To be noted: Homo sapiens, DU-145; DU145, Fig. 2g.
Text: as §1, §2, §3, §4

Experiment [7] concerns DuCaP. The following applies: Homo sapiens, Fig. 2g.
Text: as §1, §2, §3, §4

Experiment [8] concerns EPN. The following applies: Homo sapiens, Fig. 2g.
Text: as §1, §2, §3, §4

For experiment [9], the system named is LAPC-4. To be noted: Homo sapiens.
Text: as §1, §2, §3, §4

Experiment [10] deals with LnCaP-104S. To be noted: Homo sapiens, Fig. 2g.
Text: as §1, §2, §3, §4

Experiment [11] has as its system LnCaP-C81. The following applies: Homo sapiens; C-81, Fig. 2g.
Text: as §1, §2, §3, §4

Experiment [12] deals with LnCaP104R1. The following applies: Homo sapiens; 104R1, Fig. 2g.
Text: as §1, §2, §3, §4

The test system of experiment [13] is LnCaP. To be noted: Homo sapiens.
Text: as §1, §2, §3, §4

In experiment [14] the test system is PC3AR. The following applies: Homo sapiens, PC3/AR, Fig. 2g.
Text: as §1, §2, §3, §4

The subject of experiment [15] is PC3M-Ln4. To be noted: Homo sapiens; PC3M-Ln4, Fig. 2g.
Text: as §1, §2, §3, §4

The subject of experiment [16] is PC3M-pro4. The following applies: Homo sapiens; PC3M-pro4, Fig. 2g.
Text: as §1, §2, §3, §4

For experiment [17], the system named is PC3. To be noted: Homo sapiens, PC-3.
Text: as §1, §2, §3, §4

For experiment [18], the system named is PCb2. The following applies: Homo sapiens; PCb2, Fig. 2g.
Text: as §1, §2, §3, §4

Experiment [19] has as its system RWPE-1. To be noted: Homo sapiens; RWPE-1, Fig. 2g.
Text: as §1, §2, §3, §4

Experiment [20] deals with VCaP. The following applies: Homo sapiens, Fig. 2g.
Text: as §1, §2, §3, §4

Usually IC50 stands for the concentration that gives 50% inhibition. Turning to `FC(F)(F)c1cc(-c2ncn(/C=C\c3nnco3)n2)cc(C(F)(F)F)c1` [KPT-251], the IC50 is 361 ± 59 nM in experiment [1] (22rv1, 72 hours, Fig. 2a-f); 361 nM in experiment [1] (22rv1, Fig. 2g); over 1000 nM in [2] (BPH-1, BPH1, Fig. 2g); over 1000 nM in experiment [2] (BPH-1, 72 hours, Fig. 2a-f); 200 nM in experiment [3]; 480 nM in experiment [4]. For the same compound, the IC50 in [5] amounted to 300 nM; in experiment [6] it was 360 nM; in experiment [7], 210 nM; in experiment [8] it was 1000 nM; in experiment [9] (LAPC4, LAPC-4, Fig. 2g), 628 nM; in experiment [9] (LAPC4, 72 hours, Fig. 2a-f) it was 628 ± 123 nM. Besides, the IC50 was 200 nM in experiment [10]; 240 nM in experiment [11]; 270 nM in [12]; 257 ± 82 nM in [13] (72 hours, Fig. 2a-f); 257 nM in [13] (Fig. 2g); 260 nM in [14]. Moreover, the IC50 is 210 nM in experiment [15]; 355 nM in experiment [16]; 380 ± 39 nM in [17] (PC3, 72 hours, Fig. 2a-f); 300 nM in [17] (PC3, Fig. 2g); 320 nM in experiment [18]; 1000 nM in [19]. 440 nM corresponded to half-maximal inhibition in experiment [20] (IC50).
On to `O=C(/C=C\n1cnc(-c2cc(C(F)(F)F)cc(C(F)(F)F)c2)n1)NNc1cnccn1` [KPT-330], for which the IC50 in [1] (22rv1, Fig. 2g) is 102 nM; in experiment [2] (BPH-1, BPH1, Fig. 2g), over 1000 nM; in experiment [2] (BPH-1, 72 hours, Fig. 2a-f), over 1000 nM; in experiment [3] it was 66 nM; in [4] it was 160 nM; in [5], 124 nM. Moreover, the IC50 in [6] was 105 nM; in [7], 160 nM; in experiment [8] it was 800 nM; in [9] (LAPC4, LAPC-4, Fig. 2g) it was 365 nM; in experiment [10] it was 130 nM; in experiment [11] it was 80 nM. Moreover, the IC50 in experiment [12] is 83 nM; in experiment [13] (Fig. 2g), 171 nM; in experiment [14], 122 nM; in experiment [15], 90 nM; in experiment [16], 118 nM; in [17] (PC3, Fig. 2g), 103 nM. Also, the results for the IC50 in [18], in experiment [19] and in experiment [20] were 114 nM, 1000 nM and 120 nM, respectively.

The record behind these values is paper PMC4666032, “KPT-330, a potent and selective exportin-1 (XPO-1) inhibitor, shows antitumor effects modulating the expression of cyclin D1 and survivin in prostate cancer models” (BMC Cancer, 2015).
